The values below come from PubChem BioAssay AID977614 (Broad Institute, 2014).

The source made the active and inactive calls.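 Rule for the calls: active = parasite count per well reduced by over 3 SD from the mean, with host cell number above 80% of untreated; inactive = the rest.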

The test system of this experiment is L. donovani amastigotes in THP-1 macrophages, DAPI imaging, 72 h. Nature of the experiment: antileishmanial activity in infected macrophages – imaging, THP-1 host macrophages, single concentration (AID 977614).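 Note: signal is the parasite per host cell ratio from DAPI stained kinetoplasts and nuclei.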
Turning to `CCC(=O)N1[C@H](CO)[C@H](c2ccccc2)[C@H]1CN(CC1CCC1)S(C)(=O)=O`, the AC50 (usually the concentration giving half of the maximal activity seen) was > 10 µM (inactive).
To `CCCNC(=O)N1C[C@@H]2[C@H](c3ccccc31)[C@@H](CO)N2C(=O)Nc1ccccc1F` belongs > 10 µM (inactive).
Take `CCN(C[C@@H]1[C@H](c2ccccc2)[C@H](CO)N1C(=O)COC)S(C)(=O)=O`: the AC50 is > 10 µM (inactive).
For the molecule `O=C(NC[C@@H]1[C@@H](c2ccccc2)[C@H](CO)N1C(=O)Cc1ccncc1)C1CCC1`, the AC50 was > 10 µM (inactive).
In the case of `O=C(c1ccccn1)N1C[C@H]2[C@@H](c3ccccc31)[C@H](CO)N2C(=O)C1CCCCC1` it was > 10 µM (inactive); in that of `C/C=C/c1ccc([C@@H]2[C@@H](CO)N(C(C)=O)[C@H]2CNC(=O)c2ccccc2)cc1`, > 10 µM (inactive).
For `O=C(NC[C@H]1[C@H](c2ccccc2)[C@H](CO)N1C(=O)Cc1ccncc1)C1CCC1`, the AC50 was > 10 µM (inactive).
To `CNC[C@@H]1OCc2cn(nn2)CCCC(=O)N([C@H](C)CO)C[C@H]1C` belongs > 10 µM (inactive); to `C[C@@H]1CN([C@H](C)CO)C(=O)CCCn2nncc2CO[C@@H]1CN(C)S(=O)(=O)c1ccc2c(c1)OCCCO2`, > 10 µM (inactive).
To `CC(C)CNC[C@@H]1[C@@H](c2ccccc2)[C@@H](CO)N1Cc1ccc(F)cc1` belongs > 10 µM (inactive); to `CCC(=O)N1[C@H](CO)[C@@H]2c3ccccc3N(C(=O)c3cnccn3)C[C@@H]21`, > 10 µM (inactive); to `C[C@H]1CN([C@@H](C)CO)C(=O)CCCn2cc(nn2)CO[C@@H]1CN(C)C(=O)c1ccc(N2CCN(C)CC2)cc1`, > 10 µM (inactive).
Regarding `O=C(CC(F)(F)F)N1C[C@@H]2[C@H](c3ccccc31)[C@H](CO)N2C(=O)C1CCCCC1`, the AC50 was > 10 µM (inactive).
To `O=C(Nc1cccc(Cl)c1)N1C[C@H]2[C@@H](c3ccccc31)[C@H](CO)N2Cc1cccnc1` belongs > 10 µM (inactive).
Turning to `C[C@H]1CN([C@@H](C)CO)C(=O)CCCn2cc(nn2)CO[C@H]1CN(C)C(=O)CCC(F)(F)F`, the AC50 was > 10 µM (inactive).
Consider `O=C(C1CCC1)N1C[C@H]2[C@@H](c3ccccc31)[C@H](CO)N2C(=O)Nc1cccc(F)c1`, for which the AC50 was > 10 µM (inactive).
In the case of `COCC(=O)N(C[C@H]1N[C@H](CO)[C@@H]1c1ccc(C2=CCCC2)cc1)C1CCCC1` it was > 10 µM (inactive); in that of `O=C(NC[C@@H]1N[C@@H](CO)[C@@H]1c1ccccc1)c1ccccc1F`, > 10 µM (inactive); in that of `CCCNC(=O)N1[C@H](CO)[C@@H]2c3ccccc3N(C(=O)Nc3cccc(Cl)c3)C[C@@H]21`, > 10 µM (inactive).
To `C/C=C/c1ccc([C@H]2[C@@H](CO)N[C@@H]2CNC(=O)C2CC2)cc1` belongs > 10 µM (inactive); to `O=C(Nc1ccc(F)cc1)N1[C@@H](CO)[C@@H]2c3ccccc3NC[C@@H]21`, > 10 µM (inactive); to `O=C(c1ccc2c(c1)OCO2)N1C[C@H]2[C@@H](c3ccccc31)[C@H](CO)N2Cc1cccnc1`, > 10 µM (inactive).
In the case of `OC[C@H]1[C@@H]2c3ccccc3NC[C@@H]2N1Cc1cccnc1` it was > 10 µM (inactive).
Turning to `CCC(=O)N1[C@@H]2CN(C(=O)Nc3ccc(Cl)cc3)c3ccccc3[C@@H]2[C@@H]1CO`, the AC50 was > 10 µM (inactive).
Consider `C[C@H](CO)N1C[C@H](C)[C@@H](CN(C)S(=O)(=O)c2ccccc2C#N)OCc2cnnn2CCCC1=O`, for which the AC50 is > 10 µM (inactive).
In the case of `C[C@@H]1CN([C@@H](C)CO)C(=O)CCCn2nncc2CO[C@@H]1CN(C)C(=O)c1cc(-c2ccccc2)on1`, the AC50 was > 10 µM (inactive).
In the case of `O=C(Cc1ccccc1)NC[C@H]1N[C@H](CO)[C@@H]1c1ccc(C2=CCCC2)cc1` it was > 10 µM (inactive); in that of `CC(C)NC(=O)N1[C@H](CO)[C@@H]2c3ccccc3N(C)C[C@@H]21`, > 10 µM (inactive); in that of `C[C@H]1CN([C@@H](C)CO)C(=O)CCCn2nncc2CO[C@H]1CN(C)Cc1ccc2c(c1)OCCN2C`, > 10 µM (inactive).
Regarding `CN1[C@@H](CO)[C@@H]2c3ccccc3NC[C@@H]21`, the AC50 was > 10 µM (inactive).
To `COCC(=O)N1C[C@H]2[C@@H](c3ccccc31)[C@@H](CO)N2C(=O)c1ccccc1F` belongs > 10 µM (inactive); to `O=S(=O)(c1ccccc1)N1[C@H](CO)[C@H]2c3ccccc3NC[C@H]21`, > 10 µM (inactive).
To `O=C(C1CCOCC1)N1C[C@H]2[C@@H](c3ccccc31)[C@@H](CO)N2C(=O)Cc1ccccn1` belongs > 10 µM (inactive).
On to `COc1ccc(C(=O)N2C[C@H]3[C@@H](c4ccccc42)[C@@H](CO)N3C(=O)NC(C)C)cc1`, for which the AC50 was > 10 µM (inactive).
On to `COCC(=O)N1[C@H](CO)[C@@H]2c3ccccc3N(C)C[C@@H]21`, for which the AC50 was > 10 µM (inactive).
Regarding `O=C(Cc1ccccn1)N1[C@@H](CO)[C@@H]2c3ccccc3NC[C@@H]21`, the AC50 is > 10 µM (inactive).
With `CNC[C@@H]1OCc2cnnn2CCCC(=O)N([C@H](C)CO)C[C@@H]1C`, the AC50 was > 10 µM (inactive).
In the case of `COc1ccccc1NC(=O)N1C[C@@H]2[C@H](c3ccccc31)[C@H](CO)N2CC1CCOCC1` it was > 10 µM (inactive); in that of `Cc1noc(C)c1S(=O)(=O)N(C)C[C@H]1OCc2cnnn2CCCC(=O)N([C@H](C)CO)C[C@H]1C`, > 10 µM (inactive).
To `C[C@@H]1CN([C@@H](C)CO)C(=O)CCCn2nncc2CO[C@@H]1CN(C)C(=O)Nc1ccc(-c2cccs2)cc1` belongs > 10 µM (inactive); to `O=C(c1ccccc1F)N1C[C@@H]2[C@H](c3ccccc31)[C@H](CO)N2C(=O)Nc1ccccc1`, > 10 µM (inactive).
With `CCN(C[C@@H]1[C@@H](c2ccccc2)[C@H](CO)N1S(C)(=O)=O)C(=O)C1CCCC1`, the AC50 is > 10 µM (inactive).
To `COCC(=O)N1[C@H](CNC(=O)c2ccccn2)[C@H](c2ccccc2)[C@@H]1CO` belongs > 10 µM (inactive).
To `C[C@@H]1CN([C@H](C)CO)C(=O)CCCn2cc(nn2)CO[C@H]1CN(C)C(=O)NC1CCCCC1` belongs > 10 µM (inactive).
Turning to `CC(=O)N1[C@H](CO)[C@H]2c3ccccc3N(S(=O)(=O)c3ccccc3C)C[C@H]21`, the AC50 is > 10 µM (inactive).
In the case of `COCC(=O)NC[C@@H]1[C@H](c2ccccc2)[C@H](CO)N1C(=O)c1ccccc1`, the AC50 is > 10 µM (inactive).
In the case of `C[C@@H]1CN([C@H](C)CO)C(=O)CCCn2cc(nn2)CO[C@@H]1CN(C)C(=O)Nc1cccc(C(F)(F)F)c1`, the AC50 was > 10 µM (inactive).
As to `C[C@H]1CN([C@@H](C)CO)C(=O)CCCn2nncc2CO[C@@H]1CN(C)S(=O)(=O)c1ccc2c(c1)OCCCO2`, the AC50 was > 10 µM (inactive).
Consider `COc1ccc(CN(C)C[C@H]2OCc3cnnn3CCCC(=O)N([C@@H](C)CO)C[C@H]2C)cc1`, for which the AC50 is > 10 µM (inactive).
To `CCC(=O)N(C)C[C@H]1[C@@H](c2ccc(-c3cccc(F)c3)cc2)[C@@H](CO)N1C(C)=O` belongs > 10 µM (inactive).
As for `O=C(c1ccccc1F)N1C[C@H]2[C@@H](c3ccccc31)[C@H](CO)N2C(=O)Nc1ccccc1`, the AC50 is > 10 µM (inactive).
To `Cc1noc(C)c1S(=O)(=O)N(C)C[C@H]1OCc2cn(nn2)CCCC(=O)N([C@H](C)CO)C[C@H]1C` belongs > 10 µM (inactive); to `CN1C[C@@H]2[C@H](c3ccccc31)[C@H](CO)N2C(=O)c1cccnc1`, > 10 µM (inactive); to `O=C(Cc1cccnc1)N1[C@H](CO)[C@H](c2ccccc2)[C@H]1CNCC1CCC1`, > 10 µM (inactive).
As for `C[C@H]1CN([C@@H](C)CO)C(=O)CCCn2cc(nn2)CO[C@H]1CN(C)C(=O)Nc1ccc2c(c1)OCO2`, the AC50 was > 10 µM (inactive).
For the molecule `CCN(C[C@H]1[C@@H](c2ccccc2)[C@@H](CO)N1C(=O)COC)S(C)(=O)=O`, the AC50 was > 10 µM (inactive).
Consider `CC(=O)N1[C@H](CNC(=O)C2CC2)[C@@H](c2ccc(-c3ccccc3)cc2)[C@@H]1CO`, for which the AC50 is > 10 µM (inactive).
Regarding `COCC(=O)N1[C@H](CO)[C@@H]2c3ccccc3N(C(=O)Nc3ccccc3Cl)C[C@@H]21`, the AC50 was > 10 µM (inactive).
Turning to `C[C@@H]1CN([C@H](C)CO)C(=O)CCCn2nncc2CO[C@H]1CN(C)C(=O)Nc1ccccc1C(F)(F)F`, the AC50 was > 10 µM (inactive).
As for `COc1ccc(NC(=O)N2C[C@@H]3[C@H](c4ccccc42)[C@@H](CO)N3Cc2ccccn2)cc1`, the AC50 was > 10 µM (inactive).
In the case of `C[C@@H]1CN([C@@H](C)CO)C(=O)CCCn2nncc2CO[C@H]1CN(C)C(=O)Nc1ccc(-c2cccs2)cc1` it was > 10 µM (inactive).
In the case of `C[C@@H]1CN([C@@H](C)CO)C(=O)CCCn2nncc2CO[C@@H]1CN(C)C(=O)Oc1cccc2ccccc12` it was > 10 µM (inactive); in that of `C[C@@H]1CN([C@H](C)CO)C(=O)CCCn2nncc2CO[C@@H]1CN(C)C(=O)Nc1cccc(Oc2ccccn2)c1`, > 10 µM (inactive).
Take `CN(C[C@H]1N[C@@H](CO)[C@H]1c1ccc(-c2cccc(F)c2)cc1)C(=O)CC1CC1`: the AC50 was > 10 µM (inactive).
In the case of `CC(C)NC(=O)N1[C@@H](CO)[C@@H]2c3ccccc3NC[C@@H]21` it was > 10 µM (inactive); in that of `COCC(=O)N1[C@H](CO)[C@H]2c3ccccc3N(C(=O)c3cccnc3)C[C@H]21`, > 10 µM (inactive); in that of `COCCN(C[C@H]1[C@H](c2ccccc2)[C@@H](CO)N1C(C)=O)C(=O)c1cccnc1`, > 10 µM (inactive).
With `CC(=O)NC[C@H]1[C@H](c2ccc(C3=CCCC3)cc2)[C@@H](CO)N1Cc1cccnc1`, the AC50 is > 10 µM (inactive).
